In brackets after ≈: the same amount, converted by molar mass.
Tested on: not listed separately
Assay: Solubility in simulated gastric and intestinal fluids
Type: physicochemical
Conditions: pH 2
Description: The following table (Table 4) illustrates the solubility of two different compounds, NP16-XL-016 (hereinafter as “IM032”) and NP16-XL-061 (hereinafter as “IM032-C”), in two solutions with different pH values simulating the pH of gastric juice and human intestinal fluid using HCl and phosphate buffer respectively.

Row | Solubility in pH 2 (0.1N HCl + 0.1% Tween 80)-simulating human stomach | SMILES
1 | <LOQ | O=C(/C=C/c1ccccc1Cl)Nc1ccc(S(=O)(=O)N2CCCCC2)cc1 [NP16-XL-061, 3-(6-chlorophenyl)-N-[4-(1-piperidine-1-sulfonyl)phenyl]-acrylamide]

Same assay, conditions: pH 7.4, aqueous with cosolvent or surfactant or cyclodextrin; read-out: Solubility in pH 7.4 (KH2PO4 + 0.1% Tween 80)-simulating human intestine

Row | solubility | SMILES
2 | 0.0856 µg/mL | O=C(/C=C/c1ccccc1Cl)Nc1ccc(S(=O)(=O)N2CCCCC2)cc1 [NP16-XL-061, 3-(6-chlorophenyl)-N-[4-(1-piperidine-1-sulfonyl)phenyl]-acrylamide]

Tested on: S. aureus USA300
Assay: In vitro staphyloxanthin production inhibition by NP-16 analogues
Type: cell-based, Staphylococcus aureus
Conditions: S. aureus USA300, methanol extract OD 450 nm, 300 nM to 700 nM
Protocol: Evaluation of NP-16 analogues in Staphyloxanthin production
The in vitro pigment inhibition studies were performed by S. aureus USA300 cultured in BHI with or without the presence of inhibitor compounds at 37° C. and 250 rpm for 36-48 hours. The bacteria were washed twice with PBS prior to the staphyloxanthin purification with methanol. The OD of the extracts were monitor at 450 nm using DTX880 multi-plate reader spectrophotometer (Beckman). The concentration range tested for the compounds were between 300 nM to 700 nM, and control groups were added with equal volume of DMSO.
The cytotoxicity of NP-16 and some of its analogues was tested against Raw 264.7 cells, and the cell tolerance of each compounds were documented in Table 3. Along with the in vitro staphyloxanthin production of the NP-16 analogues were being tested, the compounds can exert staphyloxanthin production inhibition. The staphyloxanthin from the overnight-cultured bacteria were extracted with methanol and quantified in via spectrophotometry. The results were presented in relative ratio to NP-16 in both the inhibition ratio as well as the TC50 (concentration for decreasing cell viability by 50%) in Table 3 (sample names correspond to those listed in Table 1).

Row | SMILES | Relative ratio to NP16 based on inhibition ratio
3 | CC(=O)Oc1ccc(/C=C/C(=O)Nc2ccc(S(=O)(=O)N3CCCCC3)cc2)cc1 [NP16-XL-011, 3-(4-acetoxyl-phenyl)-N-[4-(1-piperidine-1-sulfonyl)phenyl]-acrylamide] | 1.31
4 | O=C(/C=C/c1cccnc1)Nc1ccc(S(=O)(=O)Nc2ccccc2)cc1 [NP16-XL-042, 3-(pyridin-3-yl)-N-[(4-phenyl-sulfamoyl)phenyl]-acrylamide] | 1.44
5 | O=C(/C=C/c1ccccc1)Nc1ccc(S(=O)(=O)N2CCCCC2)cc1 [NP16-XL-010, 3-phenyl-N-[4-(1-piperidine-1-sulfonyl)-phenyl]acrylamide] | 1.43
6 | N#Cc1ccccc1/C=C/C(=O)Nc1ccc(S(=O)(=O)Nc2ccccc2)cc1 [NP16-XL-043, 3-(6-cyanophenyl)-N-[(4-phenyl-sulfamoyl)phenyl]-acrylamide] | 3.23
7 | O=C(/C=C/c1ccccc1)Nc1ccc(S(=O)(=O)N2CCc3ccccc3C2)cc1 [NP16-XL-032, 3-phenyl-N-[4-(3,4-dihydro-1H-isoquinoline-2-sulfonyl)phenyl]-acrylamide] | 1.17
8 | O=C(Nc1ccc(S(=O)(=O)N2CCCCC2)cc1)c1ncoc1-c1ccccc1 [NP16-XL-057, 4-(5-phenyl-1,3-oxazole)-N-[4-(1-piperidine-1-sulfonyl)phenyl]-amide] | 0.14
9 | CN1CCN(S(=O)(=O)c2ccc(NC(=O)/C=C/c3c(F)cccc3F)cc2)CC1 [NP16-XL-053, 3-(2,6-difluoro-phenyl)-N-[4-(4-methyl-1,4-piperazine-1-sulfonyl)phenyl]-acrylamide] | 1.26
10 | O=C(/C=C/c1ccccn1)Nc1ccc(S(=O)(=O)Nc2ccccc2)cc1 [NP16-XL-044, 3-(pyridin-2-yl)-N-[(4-phenyl-sulfamoyl)phenyl]-acrylamide] | 2.47
11 | O=C(/C=C/c1c(Br)cccc1Br)Nc1ccc(S(=O)(=O)N2CCCCC2)cc1 [NP16-XL-058, 3-(2,6-dibromo-phenyl)-N-[4-(1-piperidine-1-sulfonyl)phenyl]-acrylamide] | 0.16
12 | O=C(/C=C/c1ccc(Br)cc1)Nc1ccc(S(=O)(=O)N2CCc3ccccc3C2)cc1 [NP16-XL-031, 3-(4-bromophenyl)-N-[4-(3,4-dihydro-1H-isoquinoline-2-sulfonyl)phenyl]-acrylamide] | 0.23
13 | Cc1ccccc1/C=C/C(=O)Nc1ccc(S(=O)(=O)N2CCCCC2)cc1 [NP16-XL-018, 3-(6-methylphenyl)-N-[4-(1-piperidine-1-sulfonyl)phenyl]-acrylamide] | 2.48
14 | O=C(/C=C/c1c(F)cccc1F)Nc1ccc(S(=O)(=O)Nc2ccccc2)cc1 [NP16-XL-040, 3-(2,6-difluoro-phenyl)-N-[(4-phenylsulfamoyl)-phenyl]acrylamide] | 2.51
15 | O=C(/C=C/c1ccccc1F)Nc1ccc(S(=O)(=O)Nc2ccccc2)cc1 [NP16-XL-041, 3-(6-fluorophenyl)-N-[(4-phenyl-sulfamoyl)phenyl]-acrylamide] | 3.17
16 | O=C(/C=C/c1ccccc1)Nc1ccc(S(=O)(=O)Nc2ccccc2)cc1 [NP16-XL-037, 3-phenyl-N-[(4-phenylsulfamoyl)-phenyl]acrylamide] | 3.02
17 | CC(=O)Oc1ccccc1/C=C/C(=O)Nc1ccc(S(=O)(=O)N2CCCCC2)cc1 [NP16-XL-013, 3-(6-acetoxyl-phenyl)-N-[4-(1-piperidine-1-sulfonyl)phenyl]-acrylamide] | 0.28
18 | O=C(/C=C/c1ccccc1)Nc1ccc(S(=O)(=O)N(C(=O)/C=C/c2ccccc2)c2ccccc2)cc1 [NP16-XL-036, 3-phenyl-N-{[4-(N-phenyl-3-phenylprop-2-enamido)sulfonyl]-phenyl}-acrylamide] | 3.04
19 | Cc1ccc(/C=C/C(=O)Nc2ccc(S(=O)(=O)N3CCCCC3)cc2)cc1 [NP16-XL-017, 3-(4-methylphenyl)-N-[4-(1-piperidine-1-sulfonyl)phenyl]-acrylamide] | 0.09

Row | SMILES | Relative ratio to NP16 based on inhibition ratio
20 | O=C(/C=C/c1ccccc1Br)Nc1ccc(S(=O)(=O)N(C(=O)/C=C/c2ccccc2Br)c2ccccc2)cc1 [NP16-XL-039, 3-(6-bromophenyl)-N-{[4-(N-phenyl-3-6-bromophenyl-prop-2-enamido)-sulfonyl]phenyl}-acrylamide] | 3.23
21 | CN1CCN(S(=O)(=O)c2ccc(NC(=O)/C=C/c3ccccc3F)cc2)CC1 [NP16-XL-054, 3-(6-fluorophenyl)-N-[4-(4-methyl-1,4-piperazine-1-sulfonyl)phenyl]-acrylamide] | 2.86
22 | CN1CCN(S(=O)(=O)c2ccc(NC(=O)/C=C/c3ccccc3C#N)cc2)CC1 [NP16-XL-055, 3-(6-cyanophenyl)-N-[4-(4-methyl-1,4-piperazine-1-sulfonyl)phenyl]-acrylamide] | 3.19
23 | N#Cc1ccccc1/C=C/C(=O)Nc1ccc(S(=O)(=O)N2CCCCC2)cc1 [NP16-XL-047, 3-(6-cyanophenyl)-N-[4-(1-piperidine-1-sulfonyl)phenyl]-acrylamide] | 3.18
24 | O=C(/C=C/c1ccccc1Br)Nc1ccc(S(=O)(=O)Nc2ccccc2)cc1 [NP16-XL-038, 3-(6-bromophenyl)-N-[(4-phenylsul-famoyl)phenyl]-acrylamide] | 3.23
25 | N#Cc1ccc(-c2cc(C(=O)Nc3ccc(S(=O)(=O)N4CCCCC4)cc3)no2)cc1 [NP16-XL-059, 4-[2-(4-cyano-phenyl)-1,5-oxazole]-N-[4-(1-piperidine-1-sulfonyl)phenyl]-amide] | 0.06
26 | N#Cc1ccccc1/C=C/C(=O)Nc1ccc(C(=O)Nc2ccccc2)cc1 [NP16-XL-049, 3-(6-cyanophenyl)-N-[(4-phenylamine-carbonyl)phenyl]-acryiamide] | 0.21
27 | O=C(/C=C/c1ccccc1)Nc1ccc(S(=O)(=O)N2CCCc3ccccc32)cc1 [NP16-XL-030, 3-phenyl-N-[4-(1,2,3,4--tetra-hydroquinoline-1-sulfonyl)phenyl]-acrylamide] | 1.26
28 | O=C(/C=C/c1ccc(Br)cc1)Nc1ccc(S(=O)(=O)N2CCCc3ccccc32)cc1 [NP16-XL-029, 3-(4-bromophenyl)-N-[4-(1,2,3,4--tetra-hydroquinoline-1-sulfonyl)phenyl]-acrylamide] | 0.53
29 | O=C(/C=C/c1ccccc1Br)Nc1ccc(C(=O)Nc2ccccc2)cc1 [NP16-XL-048, 3-(6-bromphenyl)-N-[(4-phenylamine-carbonyl)phenyl]-acrylamide] | 0.23
30 | CC(=O)Oc1cccc(/C=C/C(=O)Nc2ccc(S(=O)(=O)N3CCCCC3)cc2)c1 [NP16-XL-012, 3-(5-acetoxyl-phenyl)-N-[4-(1-piperidine-1-sulfonyl)phenyl]-acrylamide] | 1.16
31 | CN1CCN(S(=O)(=O)c2ccc(NC(=O)/C=C/c3ccccc3Br)cc2)CC1 [NP16-XL-052, 3-(6-bromophenyl)-N-[4-(4-methyl-1,4-piperazine-1-sulfonyl)phenyl]-acrylamide] | 3.18
32 | O=C(/C=C/c1ccc(Br)cc1)Nc1ccc(S(=O)(=O)N2CCCCC2)cc1 [NP16-XL-014, 3-(4-bromophenyl)-N-[4-(1-piperidine-1-sulfonyl)phenyl]-acrylamide] | 0.74
33 | O=C(Nc1ccc(S(=O)(=O)N2CCCCC2)cc1)c1cc(-c2cccs2)on1 [NP16-XL-060, 4-[2-(thiophen-5-yl)-1,5-oxazole]-N-[4-(1-piperidine-1-sulfonyl)phenyl]-amide] | 0.06
34 | O=C(/C=C/c1c(F)cccc1F)Nc1ccc(S(=O)(=O)N2CCCCC2)cc1 [NP16-XL-045, 3-(2,6-difluoro-phenyl)-N-[4-(1-piperidine-1-sulfonyl)phenyl]-acrylamide] | 0.88
35 | O=C(/C=C/c1cccc(Br)c1)Nc1ccc(S(=O)(=O)N2CCCCC2)cc1 [NP16-XL-015, 3-(5-bromophenyl)-N-[4-(1-piperidine-1-sulfonyl)phenyl]-acrylamide] | 1.18

Tested on: not listed separately
Assay: Solubility in commonly used solvents for oral administration
Type: physicochemical
Conditions: 1:1 Labrasol ALF/PEG300, organic solvent or mixture

Row | solubility | SMILES
36 | 6340 µg/mL (≈ 15.7 mM) | O=C(/C=C/c1ccccc1Cl)Nc1ccc(S(=O)(=O)N2CCCCC2)cc1 [NP16-XL-061, 3-(6-chlorophenyl)-N-[4-(1-piperidine-1-sulfonyl)phenyl]-acrylamide]

Same assay, conditions: 1:1 Labrasol ALF/PEG400, organic solvent or mixture

Row | solubility | SMILES
37 | 7600 µg/mL (≈ 18.8 mM) | O=C(/C=C/c1ccccc1Cl)Nc1ccc(S(=O)(=O)N2CCCCC2)cc1 [NP16-XL-061, 3-(6-chlorophenyl)-N-[4-(1-piperidine-1-sulfonyl)phenyl]-acrylamide]

Same assay, conditions: Labrasol ALF, oil or lipid

Row | solubility | SMILES
38 | 6080 µg/mL (≈ 15 mM) | O=C(/C=C/c1ccccc1Cl)Nc1ccc(S(=O)(=O)N2CCCCC2)cc1 [NP16-XL-061, 3-(6-chlorophenyl)-N-[4-(1-piperidine-1-sulfonyl)phenyl]-acrylamide]

Same assay, conditions: PEG300, organic solvent or mixture

Row | solubility | SMILES
39 | 7150 µg/mL (≈ 17.7 mM) | O=C(/C=C/c1ccccc1Cl)Nc1ccc(S(=O)(=O)N2CCCCC2)cc1 [NP16-XL-061, 3-(6-chlorophenyl)-N-[4-(1-piperidine-1-sulfonyl)phenyl]-acrylamide]

Same assay, conditions: PEG400, organic solvent or mixture

Row | solubility | SMILES
40 | 6940 µg/mL (≈ 17.1 mM) | O=C(/C=C/c1ccccc1Cl)Nc1ccc(S(=O)(=O)N2CCCCC2)cc1 [NP16-XL-061, 3-(6-chlorophenyl)-N-[4-(1-piperidine-1-sulfonyl)phenyl]-acrylamide]

Reference: US11040949B2, “Compounds affecting pigment production and methods for treatment of bacterial diseases” (Versitech Limited, priority 2017, dated 2021)
